These results are taken from patent US5270316A, “Condensed purine derivatives” (Kyowa Hakko Kogyo Co., Ltd., priority 1989, dated 1993).

Read-outs that look alike come from different tables or passages of the source.

In one data set the test system is Experimental asthma. The experiment in a line: Experimental asthma (collapse time after antigen aerosol). The format is in vivo, guinea pig (Hartley male). To be noted: 50 mg/kg oral, passively sensitized guinea pigs, 1.5% EWA aerosol; control 254 ± 18. The procedure: Guinea pigs were passively sensitized as follows. Hartley male guinea pigs weighing 350 to 500 g were intraperitoneally injected with 1 ml of rabbit anti-egg alubmin (EWA) serum prepared by the method of Koda et al. [Folia pharmacol., Japon, 66, 237 (1970)]. The animals were treated with intraperitoneal injection of diphenhydramine (20 mg/kg) and propranolol (5 mg/kg), 30 minutes before administration of test compounds. 17 hours after the sensitization, the test compounds (50 mg/kg) or saline (control) were orally administered to sensitized animals. After one hour from the administration of the test compounds, the guinea pigs were placed in plastic observation box and were exposed to an aerosal antigen of 1.5% EWA.
The time until the onset of respiratory distress-like symptom [collapse time (second)] was measured as a result of experimental asthma.

Data set [1] can be described thus: Diuretic activity (oral, urine collected for 6 hours). The format is in vivo, rat (Wistar male rats). To be noted: Rattus norvegicus, rats; for response vs control in vivo at 6.25 mg/kg: 6.25 mg/kg oral; for response vs control in vivo at 25 mg/kg: 25 mg/kg oral. How it is done:
Wistar male rats weighing 150 to 300 g were used after they were fasted for 18 hours. A test compound or saline (control) was orally administered to rats and urine was collected for 6 hours. The test was performed using 3 groups per the test compound, and each group consists of 3 animals. The urine was metered by a measuring cylinder and electrolytes (Na^+ and K^+) in the urine were assayed with a flame photometer (model […] manufactured by Hitachi Ltd.). Parameters in Table 3 are all expressed by relative value for control.

The conditions of data set [2]: J. Med. Chem., 23, 1188 (1980); cited from earlier work.
The subject of a further data set is trachea. The experiment in a line: Passive Schultz-Dale reaction (bronchodilatory effects), relaxation of sensitized trachea strips. On the set-up: species or system guinea pig (Hartley male). To be noted: Cavia porcellus; sensitized guinea pig trachea, EWA 1 μg/ml, 37° C.; read-out: Passive S-D reaction IC50 (concentration of 50% relaxation rate). The procedure:
Guinea pigs were passively sensitized as follows. […] After 24 hours, the guinea pigs were stunned and exsanguinated, and then trachea was excised. The zig-zag strips of the trachea were prepared by the method of Emmerson and Mackay [J. Pharm. […] After the contraction curves reached plateau the compounds were successively added in order to get cumulative concentration-relaxation curves.

Data set [3] can be described thus: Acute toxicity, minimum lethal dose (oral, mice). The format is in vivo. The following applies: male dd-mice, mortality observed for seven days. How it is done:
The compounds were orally administrated to male dd-mice weighing 20±1 g. Minimum lethal dose (MLD) was determined by observing the mortality for seven days after the administration.

Data set [4] has as its system Platelet Activating Factor (PAF)-induced mortality. The experiment in a line: Inhibition of Platelet Activating Factor (PAF)-induced mortality. To be noted: Mus musculus, 2 h, oral, mice, one hour before PAF 40 μg/kg i.v., p<0.05 vs control, read-out: PAF-induced mortality inhibition, minimum effective dose (MED). The format is in vivo, mouse (male dd mice). How it is done: The experiment was performed by a minor modification of method of Carlson et al. [Agents and Actions, 21, 379 (1987)]. Groups each consisting of 10 male dd mice (weighing 28 to 32 g) were used, and 100 mg/kg of test compound or a saline (control) was orally administrated. One hour after the administration of test compound, 40 μg/kg of PAF (manufactured by Avanti Polar Lipids Co., Ltd.) was intravenously administered. Two hours after PAF injection, the mortality rate of the animals was observed.

Data set [5] has as its system Glycerol-induced Renal Deficient Model. The experiment in a line: Renal protecting activity (glycerol-induced renal deficient model): serum creatinine and urea nitrogen. The format is in vivo, rat (Wistar male rats). The following applies: 10 mg/kg intraperitoneal, rats, 24 hours after glycerol injection, own control beside each compound; for Creatinine in serum, glycerol treated, test compound administrated: normal control 0.50. How it is done: It is well known that subcutaneous or intramuscular administration of glycerol to rat induce acute renal insufficiency characterized by renal tubular disturbance [Can J. Physiol.
Wistar male rats (fasted both food and water for 18 hours) were used. A test compound or saline (control) was intraperitoneally administered (dose: 10 mg/kg) to rats. After 30 minutes rats were anesthesized with ether and the back skin was picked up and 0.8 ml/100 g of 50% glycerol was subcutaneously administered. 24 hours after the glycerol injection, the rats were anesthesized with ether and 5 ml of the blood was collected from the descending aorta. To obtain the serum, after allowing it to stand for 30 minutes or longer, the blood sample was centrifuged at 3000 rpm for 10 minutes. Creatinine in the serum sample was determined using autoanalyzer (AU510, Olympus) or clinical analysis kit of creatinine (Creatinine Test Wako; by Wako Pure Chemical Ind., Japan). Urea nitrogen in the serum was determined using autoanalyzer (AU510; made by Olympus Optical Co., Ltd, Japan) or clinical analysis kit of urea nitrogen (Urea nitrogen test wako; by Wako Pure Chemical Ind., Japan).

[6] abbreviates: relative value for control (1.00), read-out: Na+/K+.
The mark [7] stands for this setting: relative value for control, read-out: Excretion of K+.
[8] abbreviates: relative value for control, read-out: Excretion of Na+.
Where [9] appears, read: relative value for control, read-out: Urine volume.

With `CCCN1C(=O)N2CC(C(C)C)N=C2c2[nH]c(C3CCCC3)nc21` (stereo not drawn) [13 Sa], the “Experimental asthma, collapse time” value with Experimental asthma turned out to be 374 ± 76 s. Also, the response vs control in vivo at 6.25 mg/kg was 163% in data set [1] (setting [6]), 18% in data set [1] (setting [7]), 92% in data set [1] (setting [8]) and 140% in data set [1] (setting [9]).
Regarding `O=C1N2CCN=C2c2[nH]cnc2N1Cc1ccc(Cl)cc1` [formula (A)], the bronchodilatory effect result in data set [2] is given as “slight bronchodilatory effect”.
Consider `Cn1cnc2c1C1=NCCN1C(=O)N2Cc1ccccc1` [10 Sa], for which the “Experimental asthma, collapse time” value with Experimental asthma amounted to 357 ± 65 s. In addition, in the data set with trachea, the IC50 came out at 9.7 µM. Also, in data set [3], the “Minimum lethal dose (MLD)” value was greater than 300 mg/kg.
Consider `CCCN1C(=O)N2CCN=C2c2[nH]cnc21` [Compound 2, 4-n-Propyl-1,4,7,8-tetrahydro-5H-imidazo[2,1-i]purin-5-one], for which the “Experimental asthma, collapse time” value in the data set with Experimental asthma was determined as 552 ± 20 s. Besides, the IC50 in the data set on trachea came out at 21 µM. Besides, the minimal effective dose in data set [4] is 100 mg/kg. In addition, in data set [5], the “Creatinine in serum, glycerol treated, test compound administrated” value was found to be 1.63 ± 0.19 mg/dL.
On to `Cn1c(=O)c2[nH]cnc2n(C)c1=O` [Theophylline, reference compound], for which, in the data set with Experimental asthma, the “Experimental asthma, collapse time” value was determined as 414 ± 47 s. For the same compound, the IC50 in the data set on trachea was determined as 23 µM. Moreover, the minimal effective dose in data set [4] came out at 100 mg/kg.
In the case of `CCCN1C(=O)N2CC(C)(C)N=C2c2[nH]c(C3CCCC3)nc21` [14 Sa], the response vs control in vivo at 6.25 mg/kg in data set [1] (setting [6]) turned out to be 123%; in data set [1] (setting [7]), 43%; in data set [1] (setting [8]), 75%; in data set [1] (setting [9]) it was 113%. Also, the response vs control in vivo at 25 mg/kg in data set [1] (setting [6]) amounted to 200%; in data set [1] (setting [7]) it was 31%; in data set [1] (setting [8]) it was 162%; in data set [1] (setting [9]) it was 145%. Further, the IC50 with trachea came to 11 µM. Moreover, in data set [4], the minimal effective dose is 100 mg/kg. Also, the “Creatinine in serum, glycerol treated, test compound administrated” value in data set [5] turned out to be 2.62 ± 0.40 mg/dL. The “Urea nitrogen in serum, glycerol treated, test compound administrated” value in data set [5] (normal control 15.2) is 94.8 ± 14.3 mg/dL. Also, in data set [3], the “Minimum lethal dose (MLD)” value is reported as greater than 300 mg/kg.
For `CCCN1C(=O)N2C(=NCC2c2ccccc2)c2c1ncn2C` (stereo not drawn) [Compound 5, 1-Methyl-7-phenyl-4-n-propyl-1,4,7,8-tetrahydro-5H-imidazo[2,1-i]purin-5-one], the “Experimental asthma, collapse time” value in the data set with Experimental asthma stood at 542 ± 36 s. Besides, the response vs control in vivo at 25 mg/kg in data set [1] (setting [6]) is 167%; in data set [1] (setting [7]), 77%; in data set [1] (setting [8]), 197%; in data set [1] (setting [9]), 165%. In the data set on trachea, the IC50 was determined as 32 µM. Also, the “Minimum lethal dose (MLD)” value in data set [3] is greater than 300 mg/kg.
